Test results: ChEMBL document CHEMBL3885861, “Open TG-GATES”

Species on record: Rattus norvegicus
Test: Open TG-GATES - Regimen: Single
Format: toxicity, organism-based, Sprague-Dawley
Parameters: regimen Single, gender Male, age 6 weeks
Details: in vivo, po, route gavage; for Eos / Fbg / Hb / Ht / Lym / MCH / MCHC / MCV / Mono / Neu / PT / Plat / RBC / Ret / APTT / Bas / WBC: tissue Blood; for KIDNEY_L / KIDNEY_R / KIDNEY_TOTAL: tissue Kidney; for LIVER: tissue Liver; for ALP / ALT / AST / BUN / CRE / Ca / DBIL / GLC / IP / K / LDH / Na / PL / RALB / TBIL / TC / TG / TP / gamma-GTP: tissue Plasma
[1] = 50 mg/kg, 3 h, dose level Middle
[2] = 50 mg/kg, 6 h, dose level Middle
[3] = 50 mg/kg, 9 h, dose level Middle
[4] = 50 mg/kg, 24 h, dose level Middle

Which results are given for `Oc1ncnc2[nH]ncc12` [ALLOPURINOL]?
Eos [1]: 0.8%; Fbg [1]: 209.6 mg/dL; Hb [1]: 14 g/dL; Ht [1]: 41.6%; Lym [1]: 80%; MCH [1]: 21.9 pg; MCHC [1]: 33.7%; MCV [1]: 64.9 fL; Mono [1]: 8.2%; Neu [1]: 11.2%; PT [1]: 12.2 s; Plat [1]: 109.1 x10_4/uL; RBC [1]: 640.4 x10_4/ul; Ret [1]: 7.8%; KIDNEY_L [1]: 1 g; KIDNEY_R [1]: 1.1 g; KIDNEY_TOTAL [1]: 2.1 g; LIVER [1]: 9.9 g; ALP [1]: 877.8 IU/L; ALT [1]: 30.4 IU/L; AST [1]: 62.8 IU/L; BUN [1]: 15.6 mg/dL; CRE [1]: 0.6 mg/dL; Ca [1]: 11.2 mg/dL; DBIL [1]: 0.1 mg/dL; GLC [1]: 195.4 mg/dL; IP [1]: 9.9 mg/dL; K [1]: 4.6 meq/L; LDH [1]: 90.6 IU/L; Na [1]: 140 meq/L; PL [1]: 136.2 mg/dL; RALB [1]: 3.8 g/dL; TBIL [1]: 0.4 mg/dL; TC [1]: 80.4 mg/dL; TG [1]: 36.6 mg/dL; TP [1]: 5.6 g/dL; gamma-GTP [1]: 1 IU/L; TERMINAL_BW [2]: 208.2 g; APTT [2]: 16.7 s; Bas [2]: 0%; Eos [2]: 0.8%; Fbg [2]: 218.8 mg/dL; Hb [2]: 13.6 g/dL; Ht [2]: 40.6%; Lym [2]: 69%; MCH [2]: 21.4 pg; MCHC [2]: 33.5%; MCV [2]: 64 fL; Mono [2]: 9.2%; Neu [2]: 21.2%; PT [2]: 12.3 s; Plat [2]: 98.1 x10_4/uL; RBC [2]: 634 x10_4/ul; Ret [2]: 8.1%; WBC [2]: 122.8 x10_2/uL; KIDNEY_L [2]: 1.1 g; KIDNEY_R [2]: 1.2 g; KIDNEY_TOTAL [2]: 2.2 g; LIVER [2]: 9.5 g; ALP [2]: 927.4 IU/L; ALT [2]: 29.6 IU/L; AST [2]: 63.6 IU/L; BUN [2]: 15 mg/dL; CRE [2]: 0.5 mg/dL; Ca [2]: 11.6 mg/dL; DBIL [2]: 0.014 mg/dL; GLC [2]: 185 mg/dL; K [2]: 4.8 meq/L; LDH [2]: 81.2 IU/L; Na [2]: 140 meq/L; PL [2]: 130.6 mg/dL; RALB [2]: 3.7 g/dL; TBIL [2]: 0.4 mg/dL; TC [2]: 72.4 mg/dL; TG [2]: 58.8 mg/dL; TP [2]: 5.5 g/dL; gamma-GTP [2]: 1 IU/L; TERMINAL_BW [3]: 207.1 g; APTT [3]: 16.8 s; Bas [3]: 0%; Eos [3]: 1.2%; Fbg [3]: 222.6 mg/dL; Hb [3]: 13.7 g/dL; Ht [3]: 40.9%; Lym [3]: 67.2%; MCH [3]: 22 pg; MCHC [3]: 33.5%; MCV [3]: 65.9 fL; Mono [3]: 4.6%; Neu [3]: 27.4%; PT [3]: 12.5 s; Plat [3]: 108.6 x10_4/uL; RBC [3]: 622 x10_4/ul; Ret [3]: 8.9%; WBC [3]: 86.1 x10_2/uL; KIDNEY_L [3]: 1 g; KIDNEY_R [3]: 1 g; KIDNEY_TOTAL [3]: 2 g; LIVER [3]: 8.8 g; ALP [3]: 846.2 IU/L; ALT [3]: 29.4 IU/L; AST [3]: 60.2 IU/L; BUN [3]: 12.2 mg/dL; CRE [3]: 0.4 mg/dL; DBIL [3]: 0.044 mg/dL; GLC [3]: 178.4 mg/dL; IP [3]: 10.9 mg/dL; K [3]: 4.6 meq/L; LDH [3]: 80.8 IU/L; Na [3]: 139.2 meq/L; PL [3]: 147 mg/dL; RALB [3]: 3.6 g/dL; TBIL [3]: 0.4 mg/dL; TC [3]: 82.8 mg/dL; TG [3]: 30.2 mg/dL; TP [3]: 5.5 g/dL; gamma-GTP [3]: 1.4 IU/L; TERMINAL_BW [4]: 219.7 g; APTT [4]: 16.3 s; Bas [4]: 0%; Eos [4]: 1.2%; Fbg [4]: 229.6 mg/dL; Hb [4]: 13.6 g/dL; Ht [4]: 40.6%; Lym [4]: 81.2%; MCH [4]: 21.2 pg; MCHC [4]: 33.4%; MCV [4]: 63.5 fL; Mono [4]: 4.8%; Neu [4]: 13.2%; PT [4]: 12 s; Plat [4]: 98.8 x10_4/uL; RBC [4]: 641 x10_4/ul; Ret [4]: 6.9%; WBC [4]: 111.4 x10_2/uL; KIDNEY_L [4]: 1 g; KIDNEY_R [4]: 1 g; KIDNEY_TOTAL [4]: 2 g; ALP [4]: 1004.2 IU/L; ALT [4]: 32 IU/L; AST [4]: 63 IU/L; BUN [4]: 18.6 mg/dL; CRE [4]: 0.5 mg/dL; Ca [4]: 11 mg/dL; DBIL [4]: 0.022 mg/dL; GLC [4]: 183.4 mg/dL; IP [4]: 7.9 mg/dL; K [4]: 4.9 meq/L; LDH [4]: 88.4 IU/L; Na [4]: 139.2 meq/L; PL [4]: 162.4 mg/dL; RALB [4]: 3.8 g/dL; TBIL [4]: 0.3 mg/dL; TC [4]: 81.4 mg/dL; TG [4]: 120 mg/dL; TP [4]: 5.8 g/dL; gamma-GTP [4]: 1.6 IU/L; TERMINAL_BW (150 mg/kg, 3 h, dose level High): 210.3 g
